The test system of data set [1] is Puccinia recondita f. Sp. Tritici. The experiment in a line: Puccinia recondita f. sp. tritici / wheat / leaf disc preventative (brown rust). The note with it: foliar, 200 ppm in the applied formulation, wheat leaf segments cv. Kanzler, preventative (inoculated 1 day after application), compared to untreated, read-out: disease control. It counts as in vivo. The method, boiled down: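 Sprayed at 200 ppm one day ahead of spore inoculation, wheat leaf segments of cultivar Kanzler sat on agar under 19° C., 75% relative humidity and alternating 12-hour light and dark. Efficacy was taken as percent disease control relative to untreated segments after 7 to 9 days.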

Data set [2] has the same test system. Briefly: Puccinia recondita f. sp. tritici / wheat / leaf disc curative (brown rust). Type of data set: in vivo. The note with it: foliar, 24 h, 200 ppm in the applied formulation, wheat leaf segments cv. Kanzler, curative (applied 1 day after inoculation), compared to untreated, read-out: disease control. The method, boiled down: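 Curative leaf-segment test, cv. Kanzler: spore inoculation, dark storage 19° C/75% RH, compound spray 1 day post-inoculation. Then 12 h light/12 h dark, 19° C, 75% RH. Read-out: % disease control vs untreated check, 6–8 d after application.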

For the next data set, the system named is Phakopsora pachyrhizi. Briefly: Phakopsora pachyrhizi / soybean / leaf disc preventative (Asian soybean rust). Type of data set: in vivo. The note with it: foliar, 200 ppm in the applied formulation, soybean leaf disks, compared to untreated, read-out: disease control. The method, boiled down: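 Read-out is percent disease control relative to untreated check discs, assessed once untreated discs show adequate disease, 12 to 14 days after application. Compounds, tested at 200 ppm in the applied formulation, are sprayed onto soybean leaf discs one day before inoculation with a spore suspension.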

In data set [3] the test system is Glomerella lacenarium (Colletotrichum lagenarium). Briefly: Glomerella lagenarium liquid culture / cucumber / preventative (anthracnose). Conditions: Colletotrichum orbiculare; 20 ppm in the applied formulation; liquid culture (PDB), growth inhibition measured photometrically 3 to 4 days after application; compared to untreated; read-out: disease control. It counts as cell-based. A digest of the protocol: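 Conidia from cryogenic storage were mixed into potato dextrose broth. This was added to compound diluted from DMSO into 0.025% Tween20, tested at 20 ppm. Plates were incubated in the dark at 24 °C and 96% relative humidity, and growth was read photometrically after 2–7 days as % activity versus untreated check.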

“And” between values parts separate entries of the source, which are not always exact repeats. Equal entries are not always repeated.

For the compound `CCC(=O)NCCc1ccc(-c2noc(C(F)(F)F)n2)cc1` [Compound 1.29, N-[2-[4-[5-(trifluoromethyl)-1,2,4-oxadiazol-3-yl]phenyl]ethyl]propanamide], the melting point is 133.6 to 135 °C and 133 to 145 °C. The pest or weed control at 200 ppm in data set [1] is at least 80%. The pest or weed control at 200 ppm in data set [2] is at least 80%. Moreover, the pest or weed control at 200 ppm in the data set with Phakopsora pachyrhizi is at least 80%. Also, the inhibition of growth at 20 ppm in data set [3] was at least 80%.
In turn, `CC(OC(F)F)C(=O)NCc1ccc(-c2noc(C(F)(F)F)n2)cc1` (centres unmarked) [Compound 1.33, 2-(difluoromethoxy)-N-[[4-[5-(trifluoromethyl)-1,2,4-oxadiazol-3-yl]phenyl]methyl]propanamide] yielded a melting point of 66 to 70 °C. Besides, the pest or weed control at 200 ppm in data set [1] is at least 80%. Moreover, the pest or weed control at 200 ppm in data set [2] is at least 80%. Moreover, in the data set with Phakopsora pachyrhizi, the pest or weed control at 200 ppm was at least 80%. In addition, in data set [3], the inhibition of growth at 20 ppm was at least 80%.
In turn, `CCC(=O)NCc1ccc(-c2noc(C(F)(F)F)n2)c(F)c1` [Compound 1.34, N-[[3-fluoro-4-[5-(trifluoromethyl)-1,2,4-oxadiazol-3-yl]phenyl]methyl]propanamide] showed a melting point of 108 to 110 °C. In data set [1], the pest or weed control at 200 ppm was at least 80%. In addition, in data set [2], the pest or weed control at 200 ppm is at least 80%. Further, in the data set on Phakopsora pachyrhizi, the pest or weed control at 200 ppm is at least 80%. Also, the inhibition of growth at 20 ppm in data set [3] was at least 80%.
With `CCC(=O)NCc1ccc(-c2noc(C(F)(F)F)n2)c(F)c1F` [Compound 1.54, N-[[2,3-difluoro-4-[5-(trifluoromethyl)-1,2,4-oxadiazol-3-yl]phenyl]methyl]propanamide], the melting point lay in the range of 112 to 118 °C. For the same compound, in data set [1], the pest or weed control at 200 ppm is at least 80%. Further, the pest or weed control at 200 ppm in data set [2] was at least 80%. Besides, the pest or weed control at 200 ppm with Phakopsora pachyrhizi was at least 80%. Further, the inhibition of growth at 20 ppm in data set [3] is at least 80%.
In the case of `CCC(=O)NC(C)(C)c1ccc(-c2noc(C(F)(F)F)n2)cc1` [Compound 1.93, N-[1-methyl-1-[4-[5-(trifluoromethyl)-1,2,4-oxadiazol-3-yl]phenyl]ethyl]propanamide], the melting point was in the range of 142 to 146 °C. Moreover, the pest or weed control at 200 ppm in data set [1] was at least 80%. Besides, in data set [2], the pest or weed control at 200 ppm is at least 80%. The pest or weed control at 200 ppm in the data set on Phakopsora pachyrhizi was at least 80%. Also, the inhibition of growth at 20 ppm in data set [3] is at least 80%.
Regarding `COCCC(=O)NC(C)(C)c1ccc(-c2noc(C(F)(F)F)n2)cc1` [Compound 1.94, 3-methoxy-N-[1-methyl-1-[4-[5-(trifluoromethyl)-1,2,4-oxadiazol-3-yl]phenyl]ethyl]propanamide], the melting point lay within 94 to 103 °C. Moreover, in data set [1], the pest or weed control at 200 ppm is at least 80%. In data set [2], the pest or weed control at 200 ppm is at least 80%. The pest or weed control at 200 ppm with Phakopsora pachyrhizi was at least 80%. For the same compound, in data set [3], the inhibition of growth at 20 ppm is at least 80%.
For `COCC(=O)NC1(c2ccc(-c3noc(C(F)(F)F)n3)cc2)CC1` [Compound 1.96, 2-methoxy-N-[1-[4-[5-(trifluoromethyl)-1,2,4-oxadiazol-3-yl]phenyl]cyclopropyl]acetamide], the melting point fell in the range of 95 to 99 °C. For the same compound, the pest or weed control at 200 ppm in data set [1] is at least 80%. Besides, the pest or weed control at 200 ppm in data set [2] is at least 80%. For the same compound, the pest or weed control at 200 ppm in the data set with Phakopsora pachyrhizi is at least 80%. In data set [3], the inhibition of growth at 20 ppm was at least 80%.
For `O=C(COC(F)F)NCc1ccc(-c2noc(C(F)(F)F)n2)cc1` [Compound 1.97, 2-(difluoromethoxy)-N-[[4-[5-(trifluoromethyl)-1,2,4-oxadiazol-3-yl]phenyl]methyl]acetamide], the melting point lay within 92 to 100 °C. Moreover, the pest or weed control at 200 ppm in data set [1] is at least 80%. The pest or weed control at 200 ppm in data set [2] was at least 80%. Also, the pest or weed control at 200 ppm in the data set with Phakopsora pachyrhizi was at least 80%. In data set [3], the inhibition of growth at 20 ppm was at least 80%.
Compound `CCC(=O)NC1(c2ccc(-c3noc(C(F)(F)F)n3)cc2)CC1` [Compound 1.99, N-[1-[4-[5-(trifluoromethyl)-1,2,4-oxadiazol-3-yl]phenyl]cyclopropyl]propanamide] yielded a melting point of 121 to 128 °C. Moreover, the pest or weed control at 200 ppm in data set [1] was at least 80%. The pest or weed control at 200 ppm in data set [2] was at least 80%. Besides, the pest or weed control at 200 ppm in the data set with Phakopsora pachyrhizi is at least 80%. Further, the inhibition of growth at 20 ppm in data set [3] was at least 80%.
`CCC(=O)NC(C#N)c1ccc(-c2noc(C(F)(F)F)n2)cc1` (centres unmarked) [Compound 1.100, N-[cyano-[4-[5-(trifluoromethyl)-1,2,4-oxadiazol-3-yl]phenyl]methyl]propanamide] had a melting point of 185 to 186 °C. Besides, the pest or weed control at 200 ppm in data set [1] is at least 80%. In data set [2], the pest or weed control at 200 ppm is at least 80%. In addition, the pest or weed control at 200 ppm with Phakopsora pachyrhizi was at least 80%. Besides, in data set [3], the inhibition of growth at 20 ppm was at least 80%.
`CC(=O)NCc1ccc(-c2noc(C(F)(F)F)n2)cc1` [Compound 1.101, N-[[4-[5-(trifluoromethyl)-1,2,4-oxadiazol-3-yl]phenyl]methyl]acetamide] had a melting point of 130 to 135 °C. The pest or weed control at 200 ppm in data set [1] was at least 80%. Further, in data set [2], the pest or weed control at 200 ppm is at least 80%. In the data set with Phakopsora pachyrhizi, the pest or weed control at 200 ppm was at least 80%. For the same compound, the inhibition of growth at 20 ppm in data set [3] is at least 80%.
With `O=C(NCc1ccc(-c2noc(C(F)(F)F)n2)cc1)C(F)(F)F` [Compound 1.102, 2,2,2-trifluoro-N-[[4-[5-(trifluoromethyl)-1,2,4-oxadiazol-3-yl]phenyl]methyl]acetamide], the melting point fell in the range of 146 to 149 °C. In data set [1], the pest or weed control at 200 ppm is at least 80%. In data set [2], the pest or weed control at 200 ppm was at least 80%. For the same compound, in the data set with Phakopsora pachyrhizi, the pest or weed control at 200 ppm is at least 80%. Besides, the inhibition of growth at 20 ppm in data set [3] is at least 80%.
`COC(C)(C)C(=O)NCc1ccc(-c2noc(C(F)(F)F)n2)cc1` [Compound 1.103, 2-methoxy-2-methyl-N-[[4-[5-(trifluoromethyl)-1,2,4-oxadiazol-3-yl]phenyl]methyl]propanamide] had a melting point of 77 to 80 °C. In addition, in data set [1], the pest or weed control at 200 ppm is at least 80%. In data set [2], the pest or weed control at 200 ppm was at least 80%. In the data set with Phakopsora pachyrhizi, the pest or weed control at 200 ppm is at least 80%. Also, the inhibition of growth at 20 ppm in data set [3] was at least 80%.
For the compound `CCC(=O)NCC(F)c1ccc(-c2noc(C(F)(F)F)n2)cc1` (centres unmarked) [Compound 1.107, N-[2-fluoro-2-[4-[5-(trifluoromethyl)-1,2,4-oxadiazol-3-yl]phenyl]ethyl]propanamide], the melting point fell in the range of 118 to 128 °C. Also, the pest or weed control at 200 ppm in data set [1] was at least 80%. Moreover, the pest or weed control at 200 ppm in data set [2] was at least 80%. The pest or weed control at 200 ppm in the data set with Phakopsora pachyrhizi is at least 80%. The inhibition of growth at 20 ppm in data set [3] is at least 80%.
For `COCCOC(=O)NCc1ccc(-c2noc(C(F)(F)F)n2)cc1` [Compound 2.3, 2-methoxyethyl N-[[4-[5-(trifluoromethyl)-1,2,4-oxadiazol-3-yl]phenyl]methyl]carbamate], the melting point was 82 to 85 °C. For the same compound, in data set [1], the pest or weed control at 200 ppm is at least 80%. The pest or weed control at 200 ppm in data set [2] is at least 80%. In addition, the pest or weed control at 200 ppm in the data set on Phakopsora pachyrhizi was at least 80%. The inhibition of growth at 20 ppm in data set [3] was at least 80%.
Consider `COC(=O)NCc1ccc(-c2noc(C(F)(F)F)n2)cc1` [Compound 2.4, methyl N-[[4-[5-(trifluoromethyl)-1,2,4-oxadiazol-3-yl]phenyl]methyl]carbamate], for which the melting point lay in the range of 116 to 119 °C. Besides, the pest or weed control at 200 ppm in data set [1] was at least 80%. Also, in data set [2], the pest or weed control at 200 ppm is at least 80%. Further, in the data set with Phakopsora pachyrhizi, the pest or weed control at 200 ppm is at least 80%. Moreover, the inhibition of growth at 20 ppm in data set [3] is at least 80%.
In turn, `CCOC(=O)NCCc1ccc(-c2noc(C(F)(F)F)n2)cc1` [Compound 2.5, ethyl N-[2-[4-[5-(trifluoromethyl)-1,2,4-oxadiazol-3-yl]phenyl]ethyl]carbamate] gave a melting point of 92 to 96 °C. For the same compound, in data set [1], the pest or weed control at 200 ppm is at least 80%. Also, in data set [2], the pest or weed control at 200 ppm is at least 80%. The pest or weed control at 200 ppm in the data set with Phakopsora pachyrhizi is at least 80%. The inhibition of growth at 20 ppm in data set [3] was at least 80%.
`CCCOC(=O)NCc1ccc(-c2noc(C(F)(F)F)n2)cc1` [Compound 2.6, propyl N-[[4-[5-(trifluoromethyl)-1,2,4-oxadiazol-3-yl]phenyl]methyl]carbamate] yielded a melting point of 107.8 to 109.7 °C. For the same compound, the pest or weed control at 200 ppm in data set [1] is at least 80%. In addition, in data set [2], the pest or weed control at 200 ppm is at least 80%. For the same compound, in the data set with Phakopsora pachyrhizi, the pest or weed control at 200 ppm was at least 80%. For the same compound, the inhibition of growth at 20 ppm in data set [3] is at least 80%.
Compound `C#CCOC(=O)NCc1ccc(-c2noc(C(F)(F)F)n2)cc1` [Compound 2.19, prop-2-ynyl N-[[4-[5-(trifluoromethyl)-1,2,4-oxadiazol-3-yl]phenyl]methyl]carbamate] showed a melting point of 93 to 95 °C. Moreover, the pest or weed control at 200 ppm in data set [1] is at least 80%. For the same compound, the pest or weed control at 200 ppm in data set [2] was at least 80%. Besides, the pest or weed control at 200 ppm in the data set on Phakopsora pachyrhizi is at least 80%. The inhibition of growth at 20 ppm in data set [3] is at least 80%.

The values above are taken from patent US10501425B2, “Microbiocidal oxadiazole derivatives” (SYNGENTA PARTICIPATIONS AG, priority 2015, dated 2019).
